Reference: publication PMC12297533 (Scientific Reports, 2025)
Read-outs that look alike come from different tables or passages of the source.

What was measured:
[1] = tested on: SH-SY5Y cells; experiment: Protection against H2O2 induced-neurotoxicity; assay type: cell-based, human; conditions: 150 μM H2O2; for Neuroprotective activity against H2O2: 6.25, 12.5, 25 μM
Description: H2O2 concentration that caused 50% reduction in cell viability was evaluated as previously reported. Then the cultured cells (2 × 10^4 cells/well) were incubated with test samples (at non-cytotoxic concentrations: 6.25, 12.5, 25 μM) or catechin as a positive control (at non-cytotoxic concentrations: 6.25, 12.5, 25, 50, 100 μM). Lastly, the WST-1 reagent was used to evaluate the cell viability as reported.

[2] = tested on: SH-SY5Y cells; experiment: Determination of non-cytotoxic concentrations (WST-1 cell viability); assay type: cell-based; conditions: for Concentration showing cytotoxic effect on SH-SY5Y cells: tested 6.25-200 μM; for Non-cytotoxic concentration on SH-SY5Y cells: human
Description: In this assay, the non-toxic concentrations of the tested samples to SH-SY5Y cells, along with catechin[58] and epicatechin-3-gallate[59] as a positive controls were used for the evaluation of the neuroprotective activity. […]. Cell viability was then assessed using a previously described method.

[3] = biological target: T1, COX-1 (Homo sapiens, UniProt P23219); experiment: In vitro COX-1 enzyme inhibitory assay (Cayman kit); assay type: biochemical; conditions: mean ± SD, n = 3
T1 construct: purchased Cayman No.548
Description: (§1) The ability to inhibit COX-1 and COX-2 enzymes was evaluated as previously reported[35],[36], using COX-1 Cayman human enzyme inhibitory assay kit (No.548, USA), COX-2 Cayman human enzyme inhibitory assay kit (No.547, USA) and Tecan Spark reader. […] The % Relative Inhibition was calculated as follows: [drawing 1]

[4] = biological target: T2, COX-2 (Homo sapiens, UniProt P35354); experiment: In vitro COX-2 enzyme inhibitory assay (Cayman kit); assay type: biochemical; conditions: for IC50: mean ± SD, n = 3
T2 construct: purchased Cayman No.547
T2 sequence (P35354 18-604): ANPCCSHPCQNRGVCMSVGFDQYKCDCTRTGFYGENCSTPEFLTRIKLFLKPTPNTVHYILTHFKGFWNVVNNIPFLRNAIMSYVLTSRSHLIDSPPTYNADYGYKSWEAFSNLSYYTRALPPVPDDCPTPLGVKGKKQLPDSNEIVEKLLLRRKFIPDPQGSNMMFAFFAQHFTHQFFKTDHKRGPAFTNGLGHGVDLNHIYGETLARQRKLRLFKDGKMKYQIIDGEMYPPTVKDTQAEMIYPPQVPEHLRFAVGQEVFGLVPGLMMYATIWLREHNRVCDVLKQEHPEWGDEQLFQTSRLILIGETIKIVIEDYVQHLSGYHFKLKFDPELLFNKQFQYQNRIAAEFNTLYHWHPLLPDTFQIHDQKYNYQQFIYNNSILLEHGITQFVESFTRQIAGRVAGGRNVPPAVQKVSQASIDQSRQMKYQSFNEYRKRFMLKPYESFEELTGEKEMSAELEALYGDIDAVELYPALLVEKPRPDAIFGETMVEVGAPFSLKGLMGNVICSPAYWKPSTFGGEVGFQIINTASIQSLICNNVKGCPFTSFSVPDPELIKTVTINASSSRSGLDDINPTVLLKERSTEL
Description: as §1

[5] = biological target: AChE (Homo sapiens, UniProt P22303); experiment: biochemical; conditions: for Inhibitory activity against AChE: concentrations up to 100 µM
[6] = tested on: SH-SY5Y cells; experiment: Protection against Aβ1-42 induced-neurotoxicity; assay type: cell-based, human; conditions: only at 50 and 100 μM; Aβ1-42 25 μM
Description: Finally, evaluation of cell viability was conducted.

[7] = mean ± SD, n = 3, read-out: AChE inhibition IC50

AChE, sequence (P22303 32-614): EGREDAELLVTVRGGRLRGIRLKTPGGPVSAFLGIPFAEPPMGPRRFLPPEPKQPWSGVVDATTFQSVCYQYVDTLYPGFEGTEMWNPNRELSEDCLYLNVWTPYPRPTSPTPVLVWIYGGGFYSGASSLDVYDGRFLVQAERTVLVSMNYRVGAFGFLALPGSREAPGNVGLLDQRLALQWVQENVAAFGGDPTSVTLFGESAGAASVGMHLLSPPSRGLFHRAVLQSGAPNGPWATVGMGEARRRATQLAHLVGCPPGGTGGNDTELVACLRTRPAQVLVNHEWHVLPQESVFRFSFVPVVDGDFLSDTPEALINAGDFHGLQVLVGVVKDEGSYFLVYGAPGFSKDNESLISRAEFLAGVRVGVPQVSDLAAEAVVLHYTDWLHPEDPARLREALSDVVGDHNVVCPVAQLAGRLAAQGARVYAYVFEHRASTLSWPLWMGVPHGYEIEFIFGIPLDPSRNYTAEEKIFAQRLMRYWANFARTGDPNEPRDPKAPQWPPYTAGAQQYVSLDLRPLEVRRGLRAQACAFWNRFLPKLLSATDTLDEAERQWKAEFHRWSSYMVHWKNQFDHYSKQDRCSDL
T1 sequence (P23219 24-599): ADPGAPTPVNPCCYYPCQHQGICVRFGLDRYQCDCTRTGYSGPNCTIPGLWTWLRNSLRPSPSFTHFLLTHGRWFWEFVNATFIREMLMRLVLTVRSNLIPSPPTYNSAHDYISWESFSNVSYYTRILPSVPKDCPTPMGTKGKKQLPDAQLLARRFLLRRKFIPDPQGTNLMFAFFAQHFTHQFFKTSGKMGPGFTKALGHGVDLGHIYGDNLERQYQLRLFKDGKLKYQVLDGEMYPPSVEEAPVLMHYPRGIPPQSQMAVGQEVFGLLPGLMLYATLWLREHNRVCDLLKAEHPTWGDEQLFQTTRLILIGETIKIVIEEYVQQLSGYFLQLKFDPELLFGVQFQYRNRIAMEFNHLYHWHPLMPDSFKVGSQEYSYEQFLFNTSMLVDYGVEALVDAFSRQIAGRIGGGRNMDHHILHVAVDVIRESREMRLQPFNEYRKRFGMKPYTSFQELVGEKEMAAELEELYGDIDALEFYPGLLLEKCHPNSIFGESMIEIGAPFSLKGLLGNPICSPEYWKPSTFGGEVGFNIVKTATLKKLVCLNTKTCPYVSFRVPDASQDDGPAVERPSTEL

| Compound | Neuroprotective effect against H2O2 ([1]; only at 50 and 100 μM) | Concentration showing cytotoxic effect on SH-SY5Y cells [2] | IC50 [3] | COX-2 selective index S.I = IC50 COX-1/IC50 COX-2 [4] | IC50 [4] | Neuroprotective activity against H2O2 [1] | inhibition at 100 µM ([5]; at 100 µM) | IC50 [5, 7] | Inhibitory activity against AChE [5] | IC50 [5] | Non-cytotoxic concentration on SH-SY5Y cells [2] | Neuroprotection against Aβ1-42 [6] |
| --- | --- | --- | --- | --- | --- | --- | --- | --- | --- | --- | --- | --- |
| O.Oc1cc(O)c2c(c1)O[C@H](c1ccc(O)c(O)c1)[C@@H](O)C2 [catechin, reference compound] | exhibited neuroprotective effects | 200 µM |  |  |  |  |  |  |  |  |  |  |
| CC(C)=CCC[C@](C)(O)[C@@H]1CC=C(C(=O)O)CC1 [Metabolite 3, Hamanasic acid A] |  |  | 28.1 ± 1.74 µM | 4.362 | 6.45 ± 0.24 µM | didn’t show any neuroprotective activity | 20% | > 100 µM |  |  |  |  |
| CC(C)=CCCC(C)(O)C1CCC(C)CC1 (stereo not drawn) [Metabolite 4, 2,3-dihydro-α-bisabolol] |  |  | 35.3 ± 2.18 µM | 8.598 | 4.11 ± 0.15 µM |  |  | > 100 µM | no inhibitory activity |  |  |  |
| COC(=O)C1=CCC(C(C)CCC2OC2(C)C)CC1 (stereo not drawn) [Metabolite 5, 7-dehydroxy-10,11-epoxy-3-methylcarboxy-α-bisabolol] |  |  | 16.8 ± 1.04 µM | 6.711 | 2.51 ± 0.09 µM | didn’t show any neuroprotective activity |  |  | no inhibitory activity | > 100 µM |  |  |
| CC1=CCC(C(C)(O)CCC(O)C(C)(C)O)CC1 (stereo not drawn) [Metabolite 2, 10β,11-dihydroxy-α-bisabolol] |  |  | 71 ± 4.4 µM | 4.093 | 17.3 ± 0.66 µM |  |  | 12.9 µM |  |  |  |  |
| CC(C)(O)C(O)CCC(C)(O)C1CC=C(CO)CC1 (stereo not drawn) [Metabolite 6, 10β,11,15-trihydroxy-α-bisabolol] |  |  | 67.8 ± 2.28 µM | 12.58 | 5.39 ± 0.18 µM |  |  | > 100 µM | no inhibitory activity |  | ≤ 12.5 µM |  |
| epicatechin-3-gallate |  | 200 µM |  |  |  |  |  |  |  |  |  | exhibited neuroprotection |
| CC(C)=CCCC(C)(O)C1CC=C(C)CC1 (stereo not drawn) [α-Bisabolol, (-)-α-bisabolol, reference compound] |  |  | 20.1 ± 1.19 µM | 6.889 | 2.92 ± 0.13 µM |  |  |  | no inhibitory activity | > 100 µM | ≤ 25 µM |  |
